Experimental data: ChEMBL document CHEMBL1201862, “PubChem BioAssay data set” (2004)
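Each compound was tested at five concentrations against cells in 96-well plates for 48 hours. GI50: concentration for 50% inhibition of growth.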 The source made the active and inactive calls. Cut-off read from the data, not from the text of the source: active = GI50 up to about 1.1 µM and inactive = higher. Where a SMILES comes first, the peptide text is derived from it. [ ]: non-standard residue; d: D form. Hiv = CC(C)[C@H](O)C(=O)O

Key:
Test in all cases: NCI tumour cell line growth inhibition, 48 h
[1] = tested on: U-251
[2] = tested on: TK-10
[3] = tested on: CCRF-CEM
[4] = tested on: RPMI-8226
[5] = tested on: T47D
[6] = tested on: UACC-257
[7] = tested on: IGROV-1
[8] = tested on: UO-31
[9] = tested on: SK-MEL-5
[10] = tested on: SK-MEL-2
[11] = tested on: HOP-92
[12] = tested on: HT-29
[13] = tested on: HOP-62
[14] = tested on: SF-539
[15] = tested on: SK-MEL-28
[16] = tested on: UACC-62
[17] = tested on: OVCAR-5
[18] = tested on: SN12C
[19] = tested on: OVCAR-3
[20] = tested on: MOLT-4

Measured: GI50

CCOC(=O)C(C)c1nc2cc3cccnc3c(Cl)c2[nH]c1=O (centres undefined)
inactive: [1] > 100 µM | [2] > 100 µM | [3] > 100 µM | [4] 25.9 µM | [5] 23.4 µM | [6] > 100 µM | [7] 52.6 µM | [8] > 100 µM | [9] > 100 µM | [10] 86.9 µM | [11] > 100 µM | [12] > 100 µM | [13] > 100 µM | [14] > 100 µM | [15] > 100 µM | [16] > 100 µM

O=C1c2cccc(O)c2C(=O)c2c(OC3OC(CO)C(O)C(O)C3O)cccc21 (centres undefined)
inactive: [1] 25.2 µM | [2] 40.4 µM | [4] 23.9 µM | [5] 20.4 µM | [6] 19.5 µM | [7] 39.2 µM | [8] 35.2 µM | [9] 16.5 µM | [10] 46.8 µM | [17] 51.6 µM | [18] 24.7 µM | [11] 73.8 µM | [12] 33.3 µM | [13] 46.3 µM | [19] 31.4 µM | [14] 25.5 µM | [15] > 100 µM | [16] 49.8 µM

Cc1ccc(NC(=O)c2cc(S(=O)(=O)Nc3n[nH]c(=O)n3-c3ccccc3)c(S)cc2Cl)cc1
inactive: [1] > 100 µM | [2] > 100 µM | [4] > 100 µM | [5] > 100 µM | [6] > 100 µM | [7] > 100 µM | [8] > 100 µM | [9] > 100 µM | [10] > 100 µM | [17] > 100 µM | [18] > 100 µM | [20] > 100 µM | [11] > 100 µM | [12] > 100 µM | [19] > 100 µM | [14] > 100 µM | [15] > 100 µM | [16] > 100 µM

O=c1c(Cc2ccc(Cl)cc2)nnc2sc(-c3ccc(-c4ccc(F)c(Cl)c4)o3)nn12
inactive: [1] 99.5 µM | [2] > 100 µM | [3] 45.7 µM | [4] > 100 µM | [5] 80.2 µM | [6] 97.3 µM | [7] 72.3 µM | [8] 33.6 µM | [9] > 100 µM | [10] 51.4 µM | [17] 56.1 µM | [18] 42.7 µM | [20] 43.7 µM | [11] 58.7 µM | [12] 50.5 µM | [13] > 100 µM | [14] > 100 µM | [15] > 100 µM | [16] 53.2 µM

CC(Oc1ccccc1Cl)C(=O)NN1C(=O)CC(=O)N(c2ccccc2)C1=S (centres undefined)
inactive: [1] 41 µM | [2] 74.8 µM | [4] 47.8 µM | [5] 31.9 µM | [6] 55.2 µM | [7] 52.6 µM | [8] 53 µM | [9] 42.8 µM | [10] 34.4 µM | [17] > 100 µM | [18] > 100 µM | [20] 30 µM | [11] 20.4 µM | [12] 54.5 µM | [13] 46.7 µM | [19] 38 µM | [14] 66.7 µM | [15] 88.3 µM | [16] 33.3 µM

COC(=O)/C(C#N)=C(/NCCN)Nc1ccccc1
inactive: [1] > 100 µM | [2] > 100 µM | [4] > 100 µM | [5] > 100 µM | [6] > 100 µM | [7] > 100 µM | [8] > 100 µM | [9] > 100 µM | [10] > 100 µM | [17] > 100 µM | [18] > 100 µM | [20] > 100 µM | [11] > 100 µM | [12] > 100 µM | [13] > 100 µM | [19] > 100 µM | [14] > 100 µM | [15] > 100 µM

CC(C)[C@@H]1OC(=O)[C@@H](C)NC(=O)[C@@H]2CCCN2C1=O (cyclo([Hiv]-Pro-[dA]))
inactive: [2] > 100 µM | [3] > 100 µM | [5] > 100 µM | [6] > 100 µM | [7] > 100 µM | [9] > 100 µM | [10] > 100 µM | [17] > 100 µM | [18] > 100 µM | [20] > 100 µM | [11] > 100 µM | [12] > 100 µM | [13] > 100 µM | [19] > 100 µM | [14] > 100 µM | [15] > 100 µM | [16] > 100 µM

CN(C)c1ncc(-c2c[nH]c3ccccc23)nc1-c1c[nH]c2ccccc12
inactive: [1] 3.37 µM | [2] 8.59 µM | [4] 2.74 µM | [5] 3.23 µM | [6] 1.9 µM | [7] 3.24 µM | [8] 3.73 µM | [9] 3.72 µM | [10] 3.83 µM | [17] 4.68 µM | [18] 2.88 µM | [20] 3.47 µM | [11] 3.2 µM | [12] 2.19 µM | [13] 8.18 µM | [19] 5.75 µM | [14] 4.21 µM | [15] 2.89 µM | [16] 1.99 µM
